Experiments:
[1] = system: membrane capacitance of NIH 3T3 cells (balance between exocytosis and endocytosis); experiment: Cell capacitance in whole cell patch-clamp; type: cell-based; conditions: 10th minute over 1st minute of whole cell recording; peptides 1 mM; paired t-test
Protocol: Cells were patched with pipettes made of borosilicate glass (GC150F, Harvard Apparatus) and pulled with a vertical Narishige puller (World Precision Instruments). The solution contained (in mM): 130–140 KCH3SO3, 1 EGTA, 0.1 CaCl2, 10–20 HEPES, 4 ATP (sodium or magnesium salt), 0.4 Na-GTP (or GTPγS when indicated), 5 phosphocreatine and 3 sodium ascorbate. pH was adjusted to 7.2 using KOH and osmolarity to ~300 mOsm L^−1. Sodium ascorbate was omitted in earlier recordings but was added for better stability. Chloride ions either came from 2 mM KCl, 10 mM NaCl or 4 mM MgCl2 (when Na-ATP was used) in various trials. All salts were purchased from Sigma-Aldrich. Cells were voltage-clamped at −60 mV with an EPC10 amplifier (HEKA) with series resistance and cell capacitance estimation every 4 s in the whole cell mode. The digital triggers of the amplifier were used to drive the electrovalves for pH changes. Cell viability and dialysis efficiency were made sure of by monitoring […] throughout the recording using the Patchmaster software (HEKA): series resistance should remain below 10 MΩ and holding current should remain above −100 pA. If either of these criteria was not respected (except holding current for recordings in GTPγS, see Supplementary Fig. 3D), the recording was not considered for analysis. On a given experimental day at least one control recording (i.e. without any peptide) was performed to ensure recording quality. All these recordings were pooled in the ‘control’ condition (n = 63 on 42 experimental days). […]
Supplementary Figure 5: Characteristics of the whole cell recordings in the different conditions of this study. A, Scheme of the equivalent electrical circuit of a cell recorded in the whole cell configuration. […]
This is likely due to the activation of GTP dependent trimeric G proteins which activate various channels in the presence of GTPγS, thereby increasing the holding current. […] F, Ratios of Cm recorded during the 10 th minute of recording over Cm recorded during the 1st minute. […]

[2] = target: SH3 domain of amphiphysin (amphSH3); conditions: read-out: affinity for amphSH3; cited from earlier work
Description: The large GTPase dynamin is essential for vesicle scission[6] and is primarily recruited at the last steps of vesicle formation[4],[7],[8]. Many aspects of the function of this indispensable protein have been deciphered[9] but how its recruitment is regulated in cells is still a matter of debate. In this regard, the C-terminal proline/arginine rich domain of dynamin (dynPRD) is critical. It is a major interaction hub for Src-homology domain 3 (SH3) domain-containing endocytic accessory proteins[10] that bears several class I (RxxPxxP) and class II (PxxPxR) SH3-binding motifs (where P is prolin ...

GST-amphSH3 (dimeric) = target: T1, GST-amphSH3 (dimeric) (Mus musculus, UniProt Q7TQF7); experiment: SPR, dimeric GST-amphSH3 on immobilized peptides; type: binding, murine; conditions: below 1 µM
T1 construct: murine Ampiphysin1 SH3 domain residues 607–686); made in house; host or cells: E. coli BL21-CodonPlus (DE3)-RIPL
T1 sequence (Q7TQF7 607-686): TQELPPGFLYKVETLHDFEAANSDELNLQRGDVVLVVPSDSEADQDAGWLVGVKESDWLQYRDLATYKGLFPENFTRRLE

Compound	change of Cm, Cm(10')/Cm(1') [1]	Kd [2] [µM]	binding of GST-amphSH3 (GST-amphSH3 (dimeric))
CC(=O)N[C@@H](Cc1ccc(O)cc1)C(=O)N[C@@H](CCCCn1cc(CCC(=O)NCCCOCCOCCOCCCNC(=O)CCC(=O)NCCCOCCOCCOCCCNC(=O)CCC(=O)NCCCOCCOCCOCCCNC(=O)CCC(=O)N2CCC[C@H]2C(=O)N2CCC[C@H]2C(=O)N2CCC[C@H]2C(=O)N[C@@H](CCC(N)=O)C(=O)N[C@H](C(=O)N2CCC[C@H]2C(=O)N[C@@H](CO)C(=O)N[C@@H](CCCNC(=N)N)C(=O)N2CCC[C@H]2C(=O)N[C@@H](CC(N)=O)C(=O)N[C@@H](CCCNC(=N)N)C(=O)N[C@@H](C)C(=O)N2CCC[C@H]2C(=O)N2CCC[C@H]2C(=O)NCC(N)=O)C(C)C)nn1)C(=O)NCCCOCCOCCOCCCNC(=O)CCC(=O)NCCCOCCOCCOCCCNC(=O)CCC(=O)NCCCOCCOCCOCCCNC(=O)CCC(=O)N1CCC[C@H]1C(=O)N1CCC[C@H]1C(=O)N1CCC[C@H]1C(=O)N[C@@H](CCC(N)=O)C(=O)N[C@H](C(=O)N1CCC[C@H]1C(=O)N[C@@H](CO)C(=O)N[C@@H](CCCNC(=N)N)C(=O)N1CCC[C@H]1C(=O)N[C@@H](CC(N)=O)C(=O)N[C@@H](CCCNC(=N)N)C(=O)N[C@@H](C)C(=O)N1CCC[C@H]1C(=O)N1CCC[C@H]1C(=O)NCC(N)=O)C(C)C [dD15-N]	no significant decrease in Cm	–	–
Ac-YPPPQVPSRPNRAPPG-NH2 [D15, reference compound]	–	90	no measureable binding
